The subject of data set [1] is Human mesenchymal stem cells (MSCs). Put plainly: In vitro cytotoxicity assay (CellTiter-Glo ATP viability) on MSCs. In kind it is cell-based. Particulars: for positive effect on viability of dipeptide combined with Cu(II): 24 h, selected combinations of dipeptide and Cu(II). The protocol:
(§1) Human mesenchymal stem cells (MSCs) were cultivated in MesenCult™-ACF Plus Culture Kit (Stemcell Technologies). The medium was prepared according to the manufacturer's instructions with addition of […] gentamicin and 2 mM I-glutamine. Agarabi CHO cells were cultivated in ActiPro medium supplemented with 6 mM I-glutamine. “Complete growth medium” references the medium with added supplements used for the cultivation of the corresponding cell type.
(§2) Stock solutions of Cu(II), I-cysteine, N, N′-di-I-alanyl-I-cysteine ((Ala-Cys)2) and N, N′-di-I-lysyl-I-cysteine ((Lys-Cys)2) were brought into solution in the corresponding complete growth medium immediately prior to their use. For the assay performed with combinations of Cu(II) and I-cysteine, (Ala-Cys)2 or (Lys-Cys)2 on MSCs, the dissolved single compounds were mixed together at 2× treatment concentration. On MSCs, I-cysteine and the dipeptides were tested at 0.5 mM, 1 mM and 5 mM; Cu(II) was tested at 0.2 μM, 1 μM and 5 μM. For the treatment of Agarabi CHO cells, serial dilutions of I-cysteine, (Ala-Cys)2 and (Lys-Cys)2 stock solutions in complete growth medium were performed with 2× treatment concentration at each dilution step. On Agarabi CHO cells, I-cysteine and the dipeptides were tested at 2.5 mM, 5 mM and 10 mM; Cu(II) was tested at 2.5 μM, 10 μM and 40 μM.
(§3) The cytotoxicity of the test compounds and their combinations was assayed on MSCs and Agarabi CHO cells cultivated in white 96-well cell culture plates at 5.000 cells/well. MSCs (50 μL/well) were cultivated for 24 h in a CO2-incubator (37° C., 5% CO2, 95% humidity) to ensure cell adhesion. This was followed by the addition of the prepared 2× concentrated test compounds and mixtures (50 μL/well). […]
(§4) After incubation, the viability of the treated cells was determined based on adenosine triphosphate (ATP) quantification using the CellTiter-Glo® Luminescent Cell Viability Assay (Promega) according to the manufacturer's instructions.
(§5) To calculate the cell viability, resulting luminescence values were averaged and normalized to the signal emitted by the untreated cells.

The subject of data set [2] is Agarabi CHO cells. Put plainly: In vitro cytotoxicity assay (CellTiter-Glo ATP viability) on Agarabi CHO cells. In kind it is cell-based. To be noted: for positive effect on viability of dipeptide combined with Cu(II): Agarabi CHO cells, 96 h, selected combinations of dipeptide and Cu(II). As for the experimental part: as §1, §2, §3, §4, §5
(Cellular ATP, detected with luciferase, serves as a proxy for viable cell number.)

Each structure is given as a SMILES string. Entries after “also recorded” stand apart in the source; their conditions may differ. Where a SMILES comes first, the peptide text is derived from it. Bridges are numbered along the chain shown (N, C = ends). Roman numbers before positions name the chains, in order.

Take `C[C@H](N)C(=O)N[C@@H](CSSC[C@H](NC(=O)[C@H](C)N)C(=O)O)C(=O)O` [(Ala-Cys)2, N,N′-di-L-alanyl-L-cystine] (I: H-Ala-Cys-OH / II: H-Ala-Cys-OH; disulfide I:2-II:2): the “positive effect on viability of dipeptide combined with Cu(II)” value in data set [1] and in data set [2] was “pronounced positive effect on viability; also recorded: viability was even increased” in each case.
As to `NCCCC[C@H](N)C(=O)N[C@@H](CSSC[C@H](NC(=O)[C@@H](N)CCCCN)C(=O)O)C(=O)O` [(Lys-Cys)2, N,N′-di-L-lysyl-L-cystine] (I: H-Lys-Cys-OH / II: H-Lys-Cys-OH; disulfide I:2-II:2), the “positive effect on viability of dipeptide combined with Cu(II)” value in data set [1] and in data set [2] was “pronounced positive effect on viability; also recorded: viability was even increased” each time.
Turning to `O.O.O.O.O.O=S(=O)([O-])[O-].[Cu+2]` [Cu(II), Copper (II) sulfate pentahydrate, reference compound], the “effect of single component on cell viability” value in data set [1] (single component controls, L-cysteine and dipeptides up to 5 mM, Cu(II) up to 5 μM) is “did not have a negative effect on viability”; in data set [2] (CHO cells, single component control, Cu(II) up to 40 μM), “did not have a negative effect on viability”.

The values are drawn from US20240279615A1, “COMPOSITIONS COMPRISING DIPEPTIDES AND TRACE ELEMENTS” (Evonik Operations GmbH, priority 2021, published 2024).
